According to ChEMBL document CHEMBL3421583, “Withanolides with antibacterial activity from Nicandra john-tyleriana” (J Nat Prod, 2015):
Calls of active or inactive are those of the source.

Key:
Assay type in all cases: functional, organism-based
[1] = system: Bacillus cereus; test: Antibacterial activity against Bacillus cereus at 2000 ppm after 24 to 48 hrs by disk diffusion method
[2] = system: Bacillus cereus; test: Antibacterial activity against Bacillus cereus at 2000 ppm after 24 hrs by bioautographic TLC assay
[3] = system: Bacillus cereus; test: Bactericidal activity against Bacillus cereus BAC1 at 1000 ppm after 24 hrs
[4] = system: Bacillus cereus; test: Bacteriostatic activity against Bacillus cereus BAC1 at 750 ppm after 24 hrs

Measured: Activity

CC1=C(CO)C(=O)O[C@@H]([C@@H](C)[C@H]2C(=O)C[C@H]3[C@@H]4C[C@H]5O[C@]56CC=CC(=O)[C@]6(C)[C@H]4CC[C@]23C)C1
active: all assays above

C[C@]12CC[C@H]3[C@@H](C[C@H]4O[C@]45CC=CC(=O)[C@]35C)[C@@H]1C[C@@H](O)[C@@H]2[C@@H]1C[C@]2(C)C[C@H]1OC(=O)[C@]2(C)O
active: [1] | [2]
